Assay results published in patent US12409171B2, “Pharmaceutically active pyrazolo-pyridone modulators of DCN1/2-mediated cullin neddylation” (UNIVERSITY OF KENTUCKY RESEARCH FOUNDATION, priority 2019, dated 2025).

Experiments:
DCN1 [1] = target: T1, DCN1 (Homo sapiens (Human), UniProt Q96GG9); conditions: class symbols H, M, M-L, legend not given; cited from earlier work
DCN1 [2] = target: T1, DCN1; test: TR-FRET binding assay (biotin-DCN1 / Ac-UBE2M12-AlexaFluor488); conditions: mean ± SD (n); read-out: DCN1_TRFRET Mean EC50
Summary of the method: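 Biotinylated DCN1 binding to Ac-UBE2M12-AlexaFluor488 read by TR-FRET; assay cocktail pre-incubated 1 h at room temperature before compounds added from DMSO stocks by pin transfer. IC50 is the mean of three replicates ± SD; compounds tested in triplicate or more.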

T1 sequence (Q96GG9 whole entry): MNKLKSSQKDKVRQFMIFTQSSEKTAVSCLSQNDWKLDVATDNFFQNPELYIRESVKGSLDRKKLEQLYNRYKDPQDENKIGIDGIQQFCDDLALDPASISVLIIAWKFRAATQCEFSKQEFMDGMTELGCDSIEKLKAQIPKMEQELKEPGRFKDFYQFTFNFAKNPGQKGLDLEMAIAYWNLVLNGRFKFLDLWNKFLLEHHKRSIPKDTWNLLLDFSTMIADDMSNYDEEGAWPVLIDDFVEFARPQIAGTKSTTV

Compound	Pulse-Chase inh @ 30 uM (DCN1 [1])	EC50 (DCN1 [2])
COc1ccc([C@@H]2c3c(C)nn(C)c3NC(=O)[C@H]2NC(=O)c2cccc(C)c2)cc1F (racemic) [SJ000398158]	M-L	–
Cc1nn(C)c2c1[C@@H](c1ccc(F)c(F)c1)[C@H](NC(=O)c1ccc(Cl)cc1)C(=O)N2 (racemic) [SJ000399589]	M-L	–
CCN1C(=O)[C@@H](NC(=O)c2cccc(C(C)C)c2)[C@@H](c2ccc(F)cc2)c2c(C)nn(-c3ccccc3)c21 [RG-0014166, N-[(4S,5S)-7-ethyl-4-(4-fluorophenyl)-3-methyl-6-oxo-1-phenyl-1H,4H,5H,6H,7H-pyrazolo[3,4-b]pyridin-5-yl]-3-(propan-2-yl)benzamide]	–	473 ± 70.7 nM
CCCN1CCN2C(=O)[C@@H](NC(=O)c3cccc(C)c3)[C@@H](c3ccc(F)cc3)C(C(C)=O)=C12 [RG-0008677, N-[(6S,7S)-8-acetyl-7-(4-fluorophenyl)-5-oxo-1-propyl-1H,2H,3H,5H,6H,7H-imidazo[1,2-a]pyridin-6-yl]-3-methylbenzamide]	–	5790 nM
CCN1C(=O)[C@@H](NC(=O)c2cccc(C)c2)[C@@H](c2ccc(F)cc2)c2c(C)nn(C3CC3)c21 [RG-0008872, N-[(4S,5S)-1-cyclopropyl-7-ethyl-4-(4-fluorophenyl)-3-methyl-6-oxo-1H,4H,5H,6H,7H-pyrazolo[3,4-b]pyridin-5-yl]-3-methylbenzamide]	–	190 ± 35.6 nM
CCN1C(=O)[C@@H](NC(=O)c2cccc(C(F)(F)F)c2)[C@@H](c2ccc(F)cc2)c2c(CNC(=O)OC)nn(-c3ccccc3)c21 [RG-0014054, methyl N-{[(4S,5S)-7-ethyl-4-(4-fluorophenyl)-6-oxo-1-phenyl-5-[3-(trifluoromethyl)benzamido]-1H,4H,5H,6H,7H-pyrazolo[3,4-b]pyridin-3-yl]methyl}carbamate]	–	114 ± 4.73 nM
COC(=O)CN1C(=O)[C@@H](NC(=O)c2cccc(C(F)(F)F)c2)[C@@H](c2ccc(F)cc2)c2c(C)nn(-c3ccccc3)c21 [RG-0013841, methyl 2-[(4S,5S)-4-(4-fluorophenyl)-3-methyl-6-oxo-1-phenyl-5-[3-(trifluoromethyl)benzamido]-1H,4H,5H,6H,7H-pyrazolo[3,4-b]pyridin-7-yl]acetate]	–	5540 ± 1080 nM
CCN1C(=O)[C@@H](NC(=O)c2cccc(C(F)(F)F)c2)[C@@H](c2ccc(F)cc2)c2c(C)nn(-c3cccc(C)c3)c21 [RG-0014035, N-[(4S,5S)-7-ethyl-4-(4-fluorophenyl)-3-methyl-1-(3-methylphenyl)-6-oxo-1H,4H,5H,6H,7H-pyrazolo[3,4-b]pyridin-5-yl]-3-(trifluoromethyl)benzamide]	–	388 ± 38.5 nM
CCN1C(=O)[C@@H](NC(=O)c2cccc(C(F)(F)F)c2)[C@@H](c2cncs2)c2c(C)nn(-c3ccccc3)c21 [RG-0014005, N-[(4S,5S)-7-ethyl-3-methyl-6-oxo-1-phenyl-4-(1,3-thiazol-5-yl)-1H,4H,5H,6H,7H-pyrazolo[3,4-b]pyridin-5-yl]-3-(trifluoromethyl)benzamide]	–	1920 ± 75.2 nM
CCN1C(=O)[C@@H](NC(=O)c2cccc(C(F)(F)F)c2)[C@@H](c2ccc(F)cc2)c2c(CNCCN)nn(-c3ccccc3)c21 [RG-0014149, N-[(4S,5S)-3-{[(2-aminoethyl)amino]methyl}-7-ethyl-4-(4-fluorophenyl)-6-oxo-1-phenyl-1H,4H,5H,6H,7H-pyrazolo[3,4-b]pyridin-5-yl]-3-(trifluoromethyl)benzamide]	–	126 ± 12.1 nM
CCN1C(=O)[C@@H](NC(=O)c2cccc(C(F)(F)F)c2)[C@@H](c2ccc(F)cc2)c2c(CN3CCN(C(=O)OC(C)(C)C)CC3)nn(-c3ccccc3)c21 [RG-0014059, tert-butyl 4-{[(4S,5S)-7-ethyl-4-(4-fluorophenyl)-6-oxo-1-phenyl-5-[3-(trifluoromethyl)benzamido]-1H,4H,5H,6H,7H-pyrazolo[3,4-b]pyridin-3-yl]methyl}piperazine-1-carboxylate]	–	231 ± 16.5 nM
CCN1C(=O)[C@@H](NC(=O)c2cccc(C)c2)[C@@H](c2ccc(F)cc2)c2c(C)nn(C3CCCCC3)c21 [RG-0008877, N-[(4S,5S)-1-cyclohexyl-7-ethyl-4-(4-fluorophenyl)-3-methyl-6-oxo-1H,4H,5H,6H,7H-pyrazolo[3,4-b]pyridin-5-yl]-3-methylbenzamide]	–	835 ± 34.8 nM
CCN1C(=O)[C@@H](NC(=O)c2cccc(OC)c2)[C@@H](c2ccc(F)cc2)c2c(C)nn(-c3ccccc3)c21 [RG-0013979, N-[(4S,5S)-7-ethyl-4-(4-fluorophenyl)-3-methyl-6-oxo-1-phenyl-1H,4H,5H,6H,7H-pyrazolo[3,4-b]pyridin-5-yl]-3-methoxybenzamide]	–	629 ± 64.8 nM
CCN1C(=O)[C@@H](NC(=O)c2ccc(F)c(C)c2)[C@@H](c2ccc(F)cc2)c2c(C)nn(-c3ccccc3)c21 [RG-0014168, N-[(4S,5S)-7-ethyl-4-(4-fluorophenyl)-3-methyl-6-oxo-1-phenyl-1H,4H,5H,6H,7H-pyrazolo[3,4-b]pyridin-5-yl]-4-fluoro-3-methylbenzamide]	–	1690 ± 115 nM
CCN1C(=O)[C@@H](NC(=O)c2cccc(C)c2)[C@@H](c2ccc(F)cc2)c2c(CN)nn(-c3ccccc3)c21 [RG-0009512, N-[(4S,5S)-3-(aminomethyl)-7-ethyl-4-(4-fluorophenyl)-6-oxo-1-phenyl-1H,4H,5H,6H,7H-pyrazolo[3,4-b]pyridin-5-yl]-3-methylbenzamide]	–	171 ± 17.9 nM
Cc1cccc(C(=O)N[C@@H]2C(=O)N(C(C)C)c3c(c(C)nn3-c3ccccc3)[C@@H]2c2ccc(F)cc2)c1 [RG-0008670, N-[(4S,5S)-4-(4-fluorophenyl)-3-methyl-6-oxo-1-phenyl-7-(propan-2-yl)-1H,4H,5H,6H,7H-pyrazolo[3,4-b]pyridin-5-yl]-3-methylbenzamide]	–	4140 ± 765 nM
CCN1C(=O)[C@@H](NC(=O)c2cccc(C)c2)[C@@H](c2ccc(F)cc2)c2c(C)nn(C3CCCC3)c21 [RG-0008878, N-[(4S,5S)-1-cyclopentyl-7-ethyl-4-(4-fluorophenyl)-3-methyl-6-oxo-1H,4H,5H,6H,7H-pyrazolo[3,4-b]pyridin-5-yl]-3-methylbenzamide]	–	770 ± 76.1 nM
